Data on three compounds can be found in PMC3893156 (Molecular Genetics & Genomic Medicine, 2013).

Substitutions are numbered along the chain they refer to.

Test [1] addresses T1, Phosphomannomutase 2 (wt-PMM2) (Homo sapiens, UniProt O15305).
T1 sequence (O15305 1-246): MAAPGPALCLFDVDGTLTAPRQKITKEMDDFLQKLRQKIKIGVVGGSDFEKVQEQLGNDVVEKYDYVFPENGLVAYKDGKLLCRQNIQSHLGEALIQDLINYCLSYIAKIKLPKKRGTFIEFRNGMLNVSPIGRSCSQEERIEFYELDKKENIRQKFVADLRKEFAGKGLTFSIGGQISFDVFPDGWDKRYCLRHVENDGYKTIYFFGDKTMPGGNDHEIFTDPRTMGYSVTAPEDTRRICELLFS
The experiment in a line: activation of purified enzyme. Type of test: biochemical.

The target in test [2] is T2, Phosphomannomutase 2 (F119L-PMM2) (Homo sapiens, UniProt O15305, F119L).
T2 sequence (O15305 1-246 F119L): T1 sequence (O15305 1-246) with F119L
The experiment in a line: activation of purified enzyme. The test is classed as biochemical.

Test [3] concerns the target T1, Phosphomannomutase 2 (wt-PMM2). The experiment in a line: thermal shift assay. The test is classed as binding.
Test [4] has the same target. As to the kind of experiment: thermal shift, size exclusion chromatography. Type of test: binding. (In general: Size exclusion chromatography separates by hydrodynamic size, large species first.)

Turning to `O=P(O)(O)OC[C@H]1O[C@H](OP(=O)(O)O)[C@H](O)[C@@H](O)[C@@H]1O` [Glc-1,6-P2, glucose-1,6-bisphosphate], the EC50 in test [1] worked out at 10 µM; in test [2], 36 µM.
For the compound `O=P(O)(O)OC[C@H]1O[C@H](OP(=O)(O)O)[C@@H](O)[C@@H](O)[C@@H]1O` [Man-1,6-P2, mannose 1,6-bisphosphate], the thermal shift assay entry in test [3] was “Glc-1,6-P2 is slightly more effective than Man-1,6-P2 (Table S1)”.
As for `O=P(O)(O)OC[C@H]1OC(O)[C@H](O)[C@@H](O)[C@@H]1O` (stereo partly drawn) [Glc-6-P, D-glucose 6-phosphate], the “thermal shift, size exclusion chromatography (dimer stabilization)” value in test [4] is “Glc-1-P and Glc-6-P produce a small, but statistically significant increase of the midpoint temperature”.

One may read the EC50 as the concentration needed to bring the measured effect to its halfway point. Higher therefore signals weaker potency.
